Reference: patent publication US20110039873A1, “SUBSTITUTED PYRAZOLO[1,5-a] PYRIDINE COMPOUNDS HAVING MULTI-TARGET ACTIVITY” (priority 2009, published 2011)
Read-outs that look alike come from different tables or passages of the source.

How the values were obtained:
[1] = target: T1, recombinant human phosphodiesterase 10A1 enzyme (Homo sapiens, UniProt Q9Y233); experiment: PDE10 inhibition assay (PDELight); format: biochemical; conditions: for IC50: 1 uM cAMP, read-out: PDE 10 Inhibition (IC50 in μM); for PDE-10 inhibition (in words): Table 2
T1 construct: purchased BPS Biosciences; host or cells: Baculovirus infected Sf9 cells
T1 sequence (Q9Y233 1-779 isoform Q9Y233-1): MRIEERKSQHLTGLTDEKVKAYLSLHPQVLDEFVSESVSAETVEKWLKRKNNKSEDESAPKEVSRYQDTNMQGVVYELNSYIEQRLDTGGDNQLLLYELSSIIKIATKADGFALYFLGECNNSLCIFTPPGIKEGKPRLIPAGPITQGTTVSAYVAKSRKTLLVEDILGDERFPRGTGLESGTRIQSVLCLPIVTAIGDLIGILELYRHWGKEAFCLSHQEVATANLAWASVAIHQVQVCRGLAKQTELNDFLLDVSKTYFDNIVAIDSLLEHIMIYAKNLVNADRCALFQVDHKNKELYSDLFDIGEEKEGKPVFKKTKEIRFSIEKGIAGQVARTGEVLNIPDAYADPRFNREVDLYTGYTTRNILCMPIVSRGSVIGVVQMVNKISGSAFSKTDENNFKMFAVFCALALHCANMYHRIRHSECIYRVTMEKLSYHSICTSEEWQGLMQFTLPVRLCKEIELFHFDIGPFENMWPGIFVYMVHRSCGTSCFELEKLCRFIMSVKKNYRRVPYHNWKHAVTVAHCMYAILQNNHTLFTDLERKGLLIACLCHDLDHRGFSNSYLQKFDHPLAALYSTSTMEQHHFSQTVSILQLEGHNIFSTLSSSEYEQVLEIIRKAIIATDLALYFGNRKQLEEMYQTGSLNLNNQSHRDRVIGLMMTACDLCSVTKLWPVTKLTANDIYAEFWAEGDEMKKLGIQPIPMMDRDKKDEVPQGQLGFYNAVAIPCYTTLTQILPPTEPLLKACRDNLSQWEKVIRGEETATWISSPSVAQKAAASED
Procedure: In a 96-well plate, recombinant human phosphodiesterase 10A1 enzyme (10 U/well) expressed in Baculovirus infected Sf9 cells (BPS Biosciences) was combined with 1 uM cAMP substrate (Sigma). […] Using a PDELight® kit (Cambrex), the amount of AMP produced in the reaction from the hydrolysis of cAMP was quantified using PDELight AMP Detection Reagent which converts the AMP directly to ATP. The assay uses luciferase, which catalyses the formation of light from the newly formed ATP and luciferin. The luminescence was read on a Victor Light 1420 luminometer. IC50 calculations were plotted using a nonlinear regression curve fit.

[2] = test system: rat chronic constriction injury (CCI) model of neuropathic pain; experiment: Rat chronic constriction injury (CCI) model of neuropathic pain; format: in vivo; conditions: IP, dose not given; 50% paw withdrawal threshold, von Frey
Procedure: To induce allodynia, male Sprague-Dawley rats underwent chronic constriction injury (CCI) to the sciatic nerve as described by Bennett and Xie, Pain 1988; 33(1):87-107. The plantar surface of the hind paws was stimulated with von Frey filaments (Stoelting) to induce a withdrawal response by blinded personnel. The bending force of fiber required to induce a 50% withdrawal response was calculated following CCI surgery (pre-dosing baseline). N=5-6 allodynic rats received a single IP or oral administration of test compounds or vehicle. Two hours post-dosing, 50% paw withdrawal threshold was determined again by blinded testers using von Frey filaments. The 50% withdrawal threshold prior to CCI surgery, pre-dosing (10 days post-surgery), and 2 hours post-dosing are plotted.
For selected compounds multi-day studies were perfumed with pre-determined schedules for dosing and withdrawal threshold assessments.

[3] = target: T2, catalytic domain of phosphodiesterase 4B enzyme cloned from human brain (Homo sapiens, UniProt Q07343); experiment: PDE4 inhibition assay (PDELight); format: biochemical; conditions: for IC50: 5 uM cAMP, read-out: PDE 4 Inhibition (IC50 in μM)
T2 construct: the catalytic domain of phosphodiesterase 4B enzyme; purchased Scottish Biomedical
T2 sequence (Q07343 330-659 limits assumed): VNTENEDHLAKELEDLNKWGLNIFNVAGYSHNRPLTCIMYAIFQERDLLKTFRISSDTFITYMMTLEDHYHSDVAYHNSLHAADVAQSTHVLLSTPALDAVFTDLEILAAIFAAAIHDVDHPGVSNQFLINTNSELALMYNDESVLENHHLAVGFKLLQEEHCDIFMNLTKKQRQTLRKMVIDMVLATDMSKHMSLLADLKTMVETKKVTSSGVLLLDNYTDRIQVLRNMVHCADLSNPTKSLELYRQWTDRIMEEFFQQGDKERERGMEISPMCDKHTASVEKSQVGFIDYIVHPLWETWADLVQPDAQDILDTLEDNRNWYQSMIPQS
Procedure: In a 96-well plate, the catalytic domain of phosphodiesterase 4B enzyme (40 mU/well) cloned from human brain (Scottish Biomedical) was combined with 5 uM cAMP substrate (Sigma). […] Using a PDELight® kit (Cambrex), the amount of AMP produced in the reaction from the hydrolysis of cAMP was quantified using PDELight AMP Detection Reagent which converts the AMP directly to ATP. The assay uses luciferase, which catalyses the formation of light from the newly formed ATP and luciferin. […] IC50 calculations were plotted using a nonlinear regression curve fit.

[4] = target: T3, recombinant full length human JNK3 enzyme (Homo sapiens, UniProt P53779); experiment: JNK 3 inhibition assay (ATP depletion, luciferase); format: biochemical; conditions: for IC50: 10 uM ATP, ATF2 substrate
T3 construct: recombinant full length human JNK2 or JNK3 enzyme; purchased Upstate; host or cells: Sf21 cells
T3 sequence (P53779 whole entry): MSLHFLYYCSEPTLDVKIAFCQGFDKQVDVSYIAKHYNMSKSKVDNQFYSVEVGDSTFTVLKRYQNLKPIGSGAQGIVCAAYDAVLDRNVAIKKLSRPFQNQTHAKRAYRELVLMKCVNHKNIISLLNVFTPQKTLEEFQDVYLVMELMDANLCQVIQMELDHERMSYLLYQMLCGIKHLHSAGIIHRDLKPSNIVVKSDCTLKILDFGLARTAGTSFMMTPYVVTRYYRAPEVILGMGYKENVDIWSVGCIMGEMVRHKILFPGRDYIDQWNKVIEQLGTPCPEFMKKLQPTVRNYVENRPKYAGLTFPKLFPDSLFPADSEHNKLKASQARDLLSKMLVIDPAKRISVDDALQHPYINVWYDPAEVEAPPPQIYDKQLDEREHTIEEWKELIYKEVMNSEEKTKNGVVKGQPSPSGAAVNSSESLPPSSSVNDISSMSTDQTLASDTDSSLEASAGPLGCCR
Procedure: In a 96-well plate, recombinant full length human JNK2 or JNK3 enzyme (40 ng) expressed in Sf21 cells (Upstate) was incubated with the substrate ATF2 (3 uM) for 1 hour in the presence of 10 uM ATP. […] The ATP levels were quantified using luciferase with luminescence read on a Victor Light 1420 luminometer. IC50 calculations were plotted using a nonlinear regression curve fit.

[5] = target: T4, recombinant full length human JNK2 enzyme (Homo sapiens, UniProt P45984); experiment: JNK 2 inhibition assay (ATP depletion, luciferase); format: biochemical; conditions: 10 uM ATP, ATF2 substrate; read-out: JNK 2 Inhibition (IC50 in μM)
T4 construct: recombinant full length human JNK2 or JNK3 enzyme; purchased Upstate; host or cells: Sf21 cells
T4 sequence (P45984 whole entry): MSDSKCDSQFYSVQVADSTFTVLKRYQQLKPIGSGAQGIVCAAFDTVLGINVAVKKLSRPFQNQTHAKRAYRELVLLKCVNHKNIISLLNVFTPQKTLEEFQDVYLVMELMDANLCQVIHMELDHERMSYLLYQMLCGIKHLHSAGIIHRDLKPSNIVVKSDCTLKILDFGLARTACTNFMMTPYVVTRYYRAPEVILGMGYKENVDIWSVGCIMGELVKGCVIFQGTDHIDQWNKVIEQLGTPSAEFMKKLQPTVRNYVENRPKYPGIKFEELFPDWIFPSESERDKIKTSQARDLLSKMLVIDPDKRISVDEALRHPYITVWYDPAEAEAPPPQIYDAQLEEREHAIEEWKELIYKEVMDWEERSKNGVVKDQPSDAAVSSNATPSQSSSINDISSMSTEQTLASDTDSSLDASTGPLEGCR
Procedure: In a 96-well plate, recombinant full length human JNK2 or JNK3 enzyme (40 ng) expressed in Sf21 cells (Upstate) was incubated with the substrate ATF2 (3 uM) for 1 hour in the presence of 10 uM ATP. […] IC50 calculations were plotted using a nonlinear regression curve fit.

[6] = test system: Mouse BV-2 microglial cells; experiment: BV-2 glial cell assay (TNF-α and MCP-1 by Luminex); format: cell-based; conditions: Mus musculus, BV-2, LPS and IFN-γ activated, 20 hours
Procedure: Mouse BV-2 microglial cells were seeded on 96-well plates at a concentration of 3×10^4 cells/well. Cells were activated with 100 ng/mL LPS and IFN-γ (100 ng/mL) in the presence or absence of test compounds (0-30 uM). Following incubation for 20 hours, cells were spun down and supernatant collected. The supernatant was analyzed via Luminex for the presence of TNF-α and MCP-1.

SMILES	IC50 [1] [µM]	IC50 [3] [µM]	IC50 [4] [µM]	other results
CC(C)c1nn2ccccc2c1-c1ccnc(N)n1 [AV1139, 4-(2-isopropylpyrazolo[1,5-a]pyridin-3-yl)pyrimidin-2-amine]	> 100	> 100	18	IP CCI efficacy (Change in grams) [2]: 0.21 grams
CC(C)Nc1nccc(-c2c(-c3cccc(F)c3)nn3ccccc23)n1 [AV1179, 4-(2-(3-fluorophenyl)pyrazolo[1,5-a]pyridin-3-yl)-N-isopropylpyrimidin-2-amine]	> 100	> 100	0.2	JNK-3 inhibition (in words) ([4]; see Table 2): particularly effective
CC(C)c1nn2ccccc2c1-c1ccnc(NC2CCCC2)c1 [AV1021, N-cyclopentyl-4-(-2-isopropylpyrazolo[1,5-a]pyridin-3-yl)pyridin-2-amine]	12	> 100	> 100	
CC(C)c1nn2ccccc2c1-c1ccnc(NCCCN2CCN(C)CC2)n1 [AV1135, 4-(2-isopropylpyrazolo[1,5-a]pyridin-3-yl)-N-(3-(4-methylpiperazin-1-yl)propyl)pyrimidin-2-amine]	19	> 100	83	IP CCI efficacy (Change in grams) [2]: 0 grams
CC(C)Nc1nccc(-c2c(C(C)(C)C)nn3ccccc23)n1 [AV1157, 4-(2-tert-butylpyrazolo[1,5-a]pyridin-3-yl)-N-isopropylpyrimidin-2-amine]	> 100	> 100	> 100	
COc1ccc(Cc2nccc3cc(OC)c(OC)cc23)cc1OC [Papaverine, reference compound]				IP CCI efficacy (Change in grams) [2]: 1.35 grams
CC(C)Nc1nccc(-c2cccc3cc(C(C)C)nn23)n1 [AV1185, N-isopropyl-4-(2-isopropylpyrazolo[1,5-a]pyridin-7-yl)pyrimidin-2-amine]	> 100	57	> 100	
CC(C)c1nn2ccccc2c1-c1ccnc(N)c1 [AV105, 4-(-2-isopropylpyrazolo[1,5-a]pyridin-3-yl)pyridin-2-amine]	> 100	22	> 100	
CC(C)c1nn2ccccc2c1-c1ccnc(NC2CCNC2)n1 (centres unmarked) [AV1159, 4-(2-isopropylpyrazolo[1,5-a]pyridin-3-yl)-N-(pyrrolidin-3-yl)pyrimidin-2-amine]				IP CCI efficacy (Change in grams) [2]: 0 grams
CCC(CC)Nc1nccc(-c2c(C(C)C)nn3ccccc23)n1 [AV1155, 4-(2-isopropylpyrazolo[1,5-a]pyridin-3-yl)-N-(pentan-3-yl)pyrimidin-2-amine]	42	5.9	27	IP CCI efficacy (Change in grams) [2]: 0.67 grams; PDE-4 inhibition (in words) [3]: particularly effective

More lines, main results first:

IC50 [1] [µM]	IC50 [3] [µM]	IC50 [4] [µM]	SMILES	other results
3.8	9.9	> 10	CC(C)c1nn2ccccc2c1-c1cnc(N)nc1 [AV1203, 5-(-2-isopropylpyrazolo[1,5-a]pyridin-3-yl)pyrimidin-2-amine]	IC50 [5]: > 100 µM; EC50 ([6]; read-out: MCP-1 BV-2 (EC50 in μM)): 0.3 µM; EC50 ([6]; read-out: TNF-a BV-2 (EC50 in μM)): 0.8 µM
> 100	9.4	53	O=S(=O)(Nc1nccc(-c2cnn3ccccc23)n1)c1ccccc1 [AV1193]	
> 100		> 100	CC(C)c1cc2cccc(-c3ccnc(NC4CCCC4)n3)n2n1 [AV1186, N-cyclopentyl-4-(2-isopropylpyrazolo[1,5-a]pyridin-7-yl)pyrimidin-2-amine]	
> 100		> 100	CC(C)c1nn2ccccc2c1-c1ccnc(NS(C)(=O)=O)n1 [AV1189]	
5.4	3.9	> 100	CC(C)c1nn2ccccc2c1-c1ccnc(N(C)C)c1 [AV1208, 4-(-2-isopropylpyrazolo[1,5-a]pyridin-3-yl)-N,N-dimethylpyridin-2-amine]	
> 100	6.8	> 100	Cc1nn2ccccc2c1-c1ccnc(NS(=O)(=O)c2ccsc2)n1 [AV1191]	
13	> 100	> 100	CC(C)Nc1cc(-c2c(C(C)C)nn3ccccc23)ccn1 [AV1202, N-isopropyl-4-(-2-isopropylpyrazolo[1,5-a]pyridin-3-yl)pyridin-2-amine]	
3.2	24	> 100	CC(C)c1nn2ccccc2c1-c1cnc(NC2CCCC2)nc1 [AV1207, N-cyclopentyl-5-(-2-isopropylpyrazolo[1,5-a]pyridin-3-yl)pyrimidin-2-amine]	
	40	> 100	CC(C)c1nn2ccccc2c1-c1ccnc(NS(=O)(=O)c2ccccc2)n1 [AV1190]	
7.4	43	> 100	CC(C)Nc1ncc(-c2c(C(C)C)nn3ccccc23)cn1 [AV1206, N-isopropyl-5-(-2-isopropylpyrazolo[1,5-a]pyridin-3-yl)pyrimidin-2-amine]	
> 100		> 100	c1cc(-c2ccnc(NC3CCCC3)n2)n2nccc2c1 [AV1188, N-cyclopentyl-4-(pyrazolo[1,5-a]pyridin-7-yl)pyrimidin-2-amine]	
8.3	20.8	68	CC(C)c1nn2ccccc2c1-c1ccc(N)nc1 [AV1196, 5-(2-isopropylpyrazolo[1,5-a]pyridin-3-yl)pyridin-2-amine]	PDE-10 inhibition (in words) [1]: particularly effective; PDE-4 inhibition (in words) [3]: particularly effective
17	50.5	> 100	CC(C)Nc1ccc(-c2c(C(C)C)nn3ccccc23)cn1 [AV1197, N-isopropyl-5-(2-isopropylpyrazolo[1,5-a]pyridin-3-yl)pyridin-2-amine]	
7.1	43	> 100	CC(C)c1nn2ccccc2c1-c1ccc(NC2CCCC2)nc1 [AV1199, N-cyclopentyl-5-(2-isopropylpyrazolo[1,5-a]pyridin-3-yl)pyridin-2-amine]	PDE-10 inhibition (in words) [1]: particularly effective
> 100		> 100	CC(C)Nc1nccc(-c2cccc3ccnn23)n1 [AV1187, N-isopropyl-4-(pyrazolo[1,5-a]pyridin-7-yl)pyrimidin-2-amine]	
